Source: US20250312378A1, “COMPOSITION COMPRISING ANTI-FOLIC ACID AGENT FOR DIFFERENTIATION OF MESENCHYMAL STEM CELL INTO CARTILAGE” (EWHA UNIVERSITY-INDUSTRY COLLABORATION FOUNDATION, priority 2021, published 2025)

Key:
COL II [1] = experiment: Screening of COL II mRNA expression under 3D culture conditions (FIG. 4B); type: cell-based, Human; details: 0.1 μM
Procedure: Various antifolates were screened to evaluate their effects on cell proliferation and viability and their chondrogenic potential. The antifolates used were dapsone (1), methotrexate (2), pemetrexed (3), pralatrexate (4), proguanil (5), pyrimethamine (6), and trimethoprim (7). Stem cells loaded in a PEG-PA thermogel scaffold containing each antifolate or KGN were cultured in a DMEM growth medium containing FBS (10.0% v/v) for 21 days. A control experiment was performed under the same conditions, except that no antifolate was added.
Expression of chondrogenic biomarkers was investigated in the presence of antifolates. The expression of COL II, the most widely used biomarker for chondrogenic differentiation of stem cells, was investigated at the mRNA level (FIG. 4B).

ACAN [2] = experiment: ACAN mRNA expression by qPCR in TMSCs in PEG-PA 3D matrix; type: cell-based, Human; details: 0.1 μM; for ACAN expression level on day 14 compared to control system: day 14, vs control system containing no antifolate; for ACAN mRNA level on day 14 compared to day 0: day 14 vs day 0 (3 hours after start of culture)
From the text: (§1) Based on the screening results obtained in Example 3, dapsone (1), pralatrexate (4), and trimethoprim (7) were selected as antifolate candidates.
(§2) Human TMSCs used as stem cells were donated from Ewha Womans University Mokdong Hospital (Seoul, Korea). The cells were isolated from a donor after tonsillectomy in compliance with the ethical guidelines of the University. DMEM (Corning, USA) containing 10.0% (v/v) fetal bovine serum (FBS, Corning, USA), 1.0% (v/v) penicillin/streptomycin (PS, Corning, USA) and 1.0% (v/v) […] (AA, Corning, USA) was used as a growth medium, and the isolated human TMSCs were cultured using the growth medium in traditional polystyrene culture dishes at 37° C. under 5% CO2 atmosphere. Then, the stem cells (passage 7, 0.5×10^6 cells/well) were mixed with the aqueous PEG-PA solution (10.0 wt % in growth medium) containing an antifolate or KGN at 20° C. A system containing no antifolate or KGN was used as a control. The TMSC-suspended solution was injected into a 24-well culture plate (0.2 ml/well) at 37° C. to form a hydrogel matrix. The medium was replaced every 3 days during a 3D culture period of 21 days, and each experiment was performed in triplicate.
(§3) Chondrogenic differentiation of TMSCs was investigated at the mRNA and protein levels of chondrogenic biomarkers such as COL II, SOX 9, and ACAN. Gene expression levels were determined compared to that of a control system containing no antifolate using equal amounts of cDNA. COL I, an osteogenic biomarker, was also used to determine whether osteogenic differentiation occurred when an antifolate was used.
(§4) Specifically, […], mRNA was extracted from the cells in the thermogel by using a TRIZOL™ reagent (Invitrogen, USA) according to the manufacturer's protocol, and the mRNA concentration was assayed by a Nano Drop 2000 spectrometer (Thermo Scientific, USA). Equal amounts of cDNA were used in qPCR to determine gene expression levels compared to that of the control system containing no antifolate. Then, total cDNA was synthesized using a ReverTra Ace® qPCR RT kit (Toyobo, Japan), and mRNA expression levels were measured using a CFX96™ real-time RT-PCR system (Bio-Rad, USA) and an iQ™ SYBR® Green Supermix solution (Bio-Rad, USA). The relative expression levels of target genes were calculated as 2^−ΔΔCt by the following calculation equation: ΔΔCt=(gene A−GAPDH)t−(gene A−GAPDH)0. Here, the subscript 0 refers to data on day 0 (3 hours). The primer sequences used for amplification are shown in Table 1 below, and each test value was determined as the mean value of triplicate determinations.

COL II [3] = experiment: COL II mRNA expression by qPCR in TMSCs in PEG-PA 3D matrix; type: cell-based, Human; details: 0.1 μM; for COL II mRNA level compared to control system, day 14: day 14, vs control system containing no antifolate; for COL II expression level compared to control system (day not given): vs control system, time point not given
From the text: as §1, §2, §3
Specifically, after 0, 14, and 21 days of 3D culture, mRNA was extracted from the cells in the thermogel by using a TRIZOL™ reagent (Invitrogen, USA) according to the manufacturer's protocol, and the mRNA concentration was assayed by a Nano Drop 2000 spectrometer (Thermo Scientific, USA). Equal amounts of cDNA were used in qPCR to determine gene expression levels compared to that of the control system containing no antifolate. Then, total cDNA was synthesized using a ReverTra Ace® qPCR RT kit (Toyobo, Japan), and mRNA expression levels were measured using a CFX96™ real-time RT-PCR system (Bio-Rad, USA) and an iQ™ SYBR® Green Supermix solution (Bio-Rad, USA). The relative expression levels of target genes were calculated as 2^−ΔΔCt by the following calculation equation: ΔΔCt=(gene A−GAPDH)t−(gene A−GAPDH)0. Here, the subscript 0 refers to data on day 0 (3 hours). The primer sequences used for amplification are shown in Table 1 below, and each test value was determined as the mean value of triplicate determinations.

[4] = In vitro drug release from PEG-PA thermogel into PBS (HPLC); type: physicochemical; details: from PEG-PA thermogel (10.0 wt %) into PBS, 37° C.
Procedure: The drug release profile of the thermogel was determined in vitro. […] The temperature of the polymer solution containing the drug was increased to 37° C. to cause a sol-gel transition. After 30 minutes, phosphate-buffered saline (PBS) (1.2 mL, 37° C.) was added thereto, and the mixture was placed in a shaking thermostatic bath with 40 strokes/min at 37° C. PBS was replaced at specific sampling intervals. The drug released into the medium, PBS, was analyzed by a high-performance liquid chromatography system (HPLC; Waters 1525B, USA) equipped with a photodiode detector (Waters 2998, USA) and a Jupiter@5 μm C18 300A LC column (Phenomenex, USA). As a mobile phase, a mixed solvent of methanol/water (40/60 v/v) containing trifluoroacetic acid (0.1%) was used for dapsone, pralatrexate and trimethoprim, and a mixed solvent of acetonitrile/water (35/65 v/v) containing formic acid (0.1%) was used for KGN. The flow rate was set at 1.0 ml/min. The amount of drug released was analyzed at 260 nm for dapsone, 307 nm for pralatrexate, 287 nm for trimethoprim, and 274 nm for KGN, and was determined as the mean value of triplicate determinations.

CBFβ = experiment: Nuclear translocation of CBFβ in TMSCs by Western blot; type: cell-based, Human; details: serum-free growth medium after overnight starvation
From the text: Filamin A is an actin-binding protein that regulates the cytoskeletal network involved in chondrogenic differentiation. When KGN binds to filamin A in the cytosol, the interaction between filamin A and CBFβ is broken, and when the dissociated CBFβ enters the nucleus, CBFβ regulates RUNX1, thereby promoting differentiation of MSCs into chondrocytes. Whether the antifolate can be involved in this mechanism and regulate chondrogenic differentiation-related factors was examined by Western blot analysis and immunofluorescence assay.
Specifically, for Western blot analysis, stem cells (TMSCs) were starved overnight and then treated with each antifolate or KGN in serum-free growth medium. Then, cytosolic and nuclear proteins of the TMSCs were obtained using a nuclear/cytosolic fractionation kit (Cell Biolabs Inc., USA) and total protein was obtained using a cell extraction buffer (Invitrogen, USA) containing a protease inhibitor and phenyl methane sulfonyl fluoride (1.0 mM). Each of the cytosolic and nuclear proteins was loaded, detected with anti-CBFβ primary antibody (Cell Signaling Technology, USA), and then treated with anti-rabbit IgG HRP-conjugated secondary antibody (Cell Signaling Technology, USA) and incubated. Then, the proteins were visualized with an enhanced chemiluminescence substrate (Bio-rad, USA) using an Amersham Imager 600 (GE, UK).

ACAN [5] = experiment: ACAN protein expression by immunofluorescence assay; type: cell-based, Human; details: 0.1 μM, 14 days 3D culture
Procedure: (§5) Protein expression for COL II, SOX 9, ACAN and COL I was investigated using immunofluorescence assay for stem cells cultured for 14 days. Specifically, TMSCs, which were 3D cultured with antifolates or KGN for 14 days and then encapsulated in thermogel scaffolds, were fixed with 4.0% paraformaldehyde (PFA) for 12 hours and quickly frozen at −70° C. Then, the thermogels were cryosectioned to a thickness of 10 μm using CM1850 (Leica, Germany). All the samples were treated with Triton (0.25% v/v in PBS), and then blocked with bovine serum albumin (1.0% w/v in PBS), and treated with anti-COL II, anti-SOX 9, anti-ACAN, and anti-COL I primary antibodies. Next, the samples were washed with PBS and treated with the following secondary antibodies: goat anti-mouse IgG H&L Alexa Fluor®594 for COL II and ACAN, and goat anti-rabbit IgG H&L Alexa Fluor®594 for SOX 9 and COL I. All the antibodies were purchased from Abcam (USA) and tested according to the manufacturer's protocol. In addition, each sample was stained for nuclei and F-actin with DAPI (Molecular probes, USA) and phalloidin (PHD) (Abcam, USA), respectively. Images were obtained using an Olympus IX71 fluorescence microscope and Olympus DP2-BSW software.
(§6) For immunofluorescence assay, the cell nucleus and actin were stained blue and green with DAPI and PHD, respectively, and the antibodies for each protein were stained red.

RUNX1 = RUNX1 immunofluorescence in TMSCs; type: cell-based, Human; details: serum-free growth medium after overnight starvation
Procedure: For immunofluorescence assay, stem cells were starved overnight and then treated with each antifolate or KGN in serum-free growth medium. Each cell was treated with bovine serum albumin (1.0% w/v in PBS), and then treated with anti-CBFβ primary antibody (Abcam, USA) and anti-RUNX1 primary antibody (Santa Cruz Biotechnology, USA) and incubated. The cells were treated with anti-rabbit IgG H&L secondary antibodies (Abcam, USA) and anti-mouse IgG H&L secondary antibodies (Abcam, USA) against CBFβ and RUNX1, respectively. The cell nuclei were stained with DAPI (Molecular probes, USA), and each image was obtained using an Olympus IX71 fluorescence microscope and Olympus DP2-BSW software.

SOX 9 [6] = experiment: SOX 9 protein expression by immunofluorescence assay; type: cell-based, Human; details: 0.1 μM, 14 days 3D culture
Procedure: as §5, §6

COL II [7] = experiment: COL II protein expression by immunofluorescence assay; type: cell-based, Human; details: 0.1 μM, 14 days 3D culture
Procedure: as §5, §6

SOX 9 [8] = experiment: SOX 9 mRNA expression by qPCR in TMSCs in PEG-PA 3D matrix; type: cell-based, Human; details: 0.1 μM
From the text: as §1, §2, §3, §4

For `O=C(O)c1ccccc1C(=O)Nc1ccc(-c2ccccc2)cc1` [KGN, kartogenin], the “mRNA expression level of COL II compared to control” value (COL II [1]) was 1.5 fold, the “ACAN expression level on day 14 compared to control system” value (ACAN [2]) was 1.7 fold and the “ACAN mRNA level on day 14 compared to day 0” value (ACAN [2]) was 5 fold. The “ACAN mRNA level relative to control system, day 20” value (ACAN [2]; day 20) was “approximately 3.7 times”, the “COL II mRNA level compared to control system, day 14” value (COL II [3]) was 1.7 fold and the “COL II expression level compared to control system (day not given)” value (COL II [3]) was 2.1 fold.
With `Nc1ccc(S(=O)(=O)c2ccc(N)cc2)cc1` [dapsone] the “mRNA expression level of COL II compared to control” value (COL II [1]) was 1.8 fold, the “COL II expression level compared to control system (day not given)” value (COL II [3]) was 2.6 fold and the “drug released over 24 hours” value [4] was 70%.
With `C#CCC(Cc1cnc2nc(N)nc(N)c2n1)c1ccc(C(=O)N[C@@H](CCC(=O)O)C(=O)O)cc1` (stereo partly shown) [pralatrexate] the “nuclear translocation of CBFβ (nuclear versus cytosolic band intensity, FIG. 8B)” value (CBFβ) was “increased”, the “fluorescence intensity of ACAN protein” value (ACAN [5]) was “highest” and the “fluorescence intensity of RUNX1 in the nucleus compared to control” value (RUNX1) was “increased”. For the same molecule, the “mRNA expression level of COL II compared to control” value (COL II [1]) was 2.1 fold, the “ACAN expression level on day 14 compared to control system” value (ACAN [2]) was 4.3 fold and the “ACAN mRNA level on day 14 compared to day 0” value (ACAN [2]) was 12 fold. For the same molecule, the “fluorescence intensity of SOX 9 protein” value (SOX 9 [6]) was “highest”, the “fluorescence intensity of COL II protein” value (COL II [7]) was “highest” and the “COL II expression, rank among systems” value (COL II [3]) was “highest”. The “COL II expression relative to KGN” value (COL II [3]; day 14) was 2 fold, the “COL II mRNA level compared to control system, day 14” value (COL II [3]) was 3.9 fold and the “COL II expression on day 14 compared to day 0” value (COL II [3]; day 14 vs day 0 (3 hours after start of culture)) was 10 fold. The “COL II expression level compared to control system (day not given)” value (COL II [3]) was 3.5 fold, the “SOX 9 expression change” value (SOX 9 [8]) was “significantly (p<0.01) increased” and the “SOX 9 mRNA level, rank among systems” value (SOX 9 [8]) was “highest”. The “SOX 9 mRNA expression level compared to control system, day 14” value (SOX 9 [8]) was 4.2 fold and the “drug released over 24 hours” value [4] was 79%.
In the case of `COc1cc(Cc2cnc(N)nc2N)cc(OC)c1OC` [trimethoprim], the “mRNA expression level of COL II compared to control” value (COL II [1]) is reported as 1.5 fold, the “ACAN expression level on day 14 compared to control system” value (ACAN [2]) is reported as 2.2 fold and the “ACAN mRNA level on day 14 compared to day 0” value (ACAN [2]) is reported as 6 fold. For the same molecule, the “COL II mRNA level compared to control system, day 14” value (COL II [3]) was 2.1 fold, the “COL II expression level compared to control system (day not given)” value (COL II [3]) was 2.1 fold and the “SOX 9 expression change” value (SOX 9 [8]) was “significantly (p<0.01) increased”. For the same molecule, the “SOX 9 mRNA expression level compared to control system, day 14” value (SOX 9 [8]) was 2.9 fold and the “drug released over 24 hours” value [4] was 79%.
